Data as given in paper PMC7692187, “Rapid In Vivo Validation of HDAC Inhibitor-Based Treatments in Neuroblastoma Zebrafish Xenografts” (Pharmaceuticals, 2020).

Assays:
xenografted tumor cells = assay: Dose response in zebrafish xenografts: relative IC50 from the change in tumor volume; type: in vivo, human; conditions: Danio rerio, compared to solvent, drug applied to surrounding water, n = 3–5 fish per concentration
Experimental: (§1) To determine optimal drug concentrations, larvae bearing xenografted tumor cells were incubated with increasing drug concentrations 24 h post implantation (hpi), ranging from the concentrations used in previous cell culture experiments to the MTD(larvae) (Figure 2a). […] Using these concentrations, we evaluated whether HDACis were able to reach their specific enzymatic targets.
(§2) Right: representative images of immunohistochemical staining (c) Left: quantification of staining for acetylated histone H3. Right: representative images of immunohistochemical staining.
(§3) For treatment, larvae were incubated in freshly prepared buffer solution supplemented with 0.2 mM PTU, containing the drug of interest at increasing concentrations. Drug-containing solutions were administered at the beginning of the experiment and were not replaced during the incubation period. Solvent control was applied in the same manner as the drug treatments.

zebrafish larvae = assay: Toxicity test: three-day treatment of fish larvae without injection of tumor cells; type: in vivo, zebrafish (Danio rerio); conditions: three-day incubation time at 34 °C, drug in buffer
Experimental: as §3

cleaved caspase-3 = assay: IHC staining for cleaved caspase-3 in SK-N-BE(2)-C zebrafish xenografts; type: in vivo, human; conditions: 48 h exposure, compared to solvent-treated control
Experimental: (§4) Due to this relatively short treatment duration (48 h), the apoptosis induction of the combination therapy is predominant over the antiproliferative effect.
(§5) Left panel: representative images of sections stained against cleaved caspase-3. […] The number of positive cells was calculated as the ratio of positive to total cells counted, relative to solvent. […] (b) Left panel: representative images of sections stained against phospho-histone H3, a marker specific for cells undergoing mitosis. […] The number of positive cells (%) was calculated as the ratio of positive to total cells counted.
(§6) Following fixation (24 h at 4 °C) in Special Fixative for Anatomy and Histology (Morphisto, Frankfurt am Main, Germany), xenografted zebrafish larvae were transferred to embedding cassettes equipped with biopsy pads, dehydrated, and infiltrated with paraffin. […] FIJI software and a macro program were employed for quantitative analysis of the xenograft slides, while the analysis of slides obtained from neuroblastoma patients was carried out manually. All quantitative analyses were performed in a blinded fashion on the xenograft slides (five tissue sections per zebrafish larva), which were obtained from at least two xenotransplantation replicates.

phospho-histone H3 = assay: IHC staining for phospho-histone H3 (pHH3) in SK-N-BE(2)-C zebrafish xenografts; type: in vivo, human; conditions: 48 h exposure; solvent-treated 47%
Experimental: as §4, §5, §6

[1] = test system: acetylated histone H3 (substrate of HDAC1–3); assay: IHC staining for acetylated histone H3 in SK-N-BE(2)-C zebrafish xenografts; type: in vivo, human; conditions: 48 h exposure at IC50 concentrations (tubastatin A 50 µM), SK-N-BE(2)-C xenografts
Experimental: as §1, §2
(§7) Following fixation (24 h at 4 °C) in Special Fixative for Anatomy and Histology (Morphisto, Frankfurt am Main, Germany), xenografted zebrafish larvae were transferred to embedding cassettes equipped with biopsy pads, dehydrated, and infiltrated with paraffin. Briefly, fixed larvae were dehydrated using Leica ASP300S tissue processor (Leica Biosystems, Wetzlar, Germany) through incubation in aqueous solutions of increasing ethanol concentration (1 h in 50% ethanol, 2 h in 70% ethanol, 2 h in 80% ethanol, 1 h in 96% ethanol, 3 h in absolute ethanol) and thereafter incubated with xylene for 5 h. Next, samples were transferred to liquid paraffin at 60 °C and allowed to infiltrate for 5 h.

[2] = test system: acetylated α-tubulin (substrate of HDAC6); assay: IHC staining for acetylated α-tubulin in SK-N-BE(2)-C zebrafish xenografts; type: in vivo, human; conditions: 50 µM, 48 h, SK-N-BE(2)-C xenografts, versus solvent
Experimental: as §1, §2, §7

SK-N-BE(2)-C cells = assay: Doxorubicin accumulation in engrafted tumor cells and zebrafish tissues; type: in vivo, human; conditions: tubastatin A 50 µM with doxorubicin 110 ng/mL, 48 h, relative to doxorubicin alone
Experimental: Doxorubicin has an intrinsic fluorescence due to the presence of a hydroxy-substituted anthraquinone chromophore.
(b,c) Representative images (b) and quantification (c) of zebrafish larvae engrafted with Hoechst stained and doxorubicin-treated SK-N-BE(2)-C cells. Larvae, except of unstained larvae, were exposed for 48 h to doxorubicin (red fluorescence) and tubastatin A or solvent. Red fluorescence of doxorubicin was visualized by confocal microscopy and normalized to tumor area. Results are presented as log2 fold change (FC) relative to doxorubicin alone. […] One-way ANOVA with Tukey’s multiple comparison test, scale bar = 50 µm.
SK-N-BE(2)-C cells were incubated with Hoechst nucleic acid dye (Thermo Fisher Scientific) at a concentration of 10 µg/mL for 30 min at 37 °C. […]
Zebrafish larvae engrafted with Hoechst-stained SK-N-BE(2)-C cells were exposed to solvent, doxorubicin, or doxorubicin combined with tubastatin A for 48 h. Red fluorescence of doxorubicin was visualized by confocal microscopy. Doxorubicin has an intrinsic fluorescence due to the presence of a hydroxy-substituted anthraquinone chromophore, with typical excitation and emission maxima in the range of 500 nm and 552–585 nm, respectively. Total fluorescence intensity in the tumor area (determined by nuclear staining) was defined as that above the threshold set by the solvent group and was quantified using a macro program.

Row | Structure (SMILES) | IC50 (xenografted tumor cells; 48 h treatment) [µg/mL] | Maximum Tolerated Dose (MTD) (zebrafish larvae) | number of cells positive for cleaved caspase-3 (cleaved caspase-3) | average number of tumor cells per slide positive for pHH3 (phospho-histone H3) [%] | IC50 (xenografted tumor cells; 48 h treatment from 24 hpi) [µM] | cells stained positive for ac-histone H3 [1] | increase of acetylated α-tubulin [2] [fold] | doxorubicin accumulation in zebrafish tissues and engrafted tumor cells (SK-N-BE(2)-C cells)
1 | COc1cccc2c1C(=O)c1c(O)c3c(c(O)c1C2=O)C[C@@](O)(C(=O)CO)C[C@@H]3O[C@H]1C[C@H](N)[C@H](O)[C@H](C)O1 [doxorubicin] | 0.11 | 500 ng/mL | increased | 38 | – | – | – | –
2 | Cc1[nH]c2ccccc2c1CCNCc1ccc(/C=C/C(=O)NO)cc1 [panobinostat] | – | 1 µM | – | – | 0.2 | – | – | –
3 | CN1CCc2c(c3ccccc3n2Cc2ccc(C(=O)NO)cc2)C1 [tubastatin A] | – | 200 µM | – | – | 50 | not acetylated H3 | 5 | increased
4 | O=C(CCCCCCC(=O)Nc1ccccc1)NO [vorinostat] | – | 100 µM | increased | 30 | – | – | – | –
